Results published in US20230233500A1, “Gasdermin D (GSDMD) Succination for the Treatment of Inflammatory Disease” (University of Massachusetts, priority 2020, published 2023).
Structures can show the parent of a compound that is named as a salt.

Assays:
Format in all cases: cell-based, mouse
[1] = test system: Bone marrow-derived macrophages (BMDMs); test: LPS-nigericin inflammasome activation/pyroptosis in BMDMs; conditions: for LPS-Nig-induced release of LDH / LPS-Nig-induced release of IL-1β / kinetic cell death / formation of GSDMD-N: WT BMDMs; for LPS-Nig-induced release of LDH / LPS-Nig-induced release of IL-1β / LPS-Nig induced pyroptosis (inhibitory effect): LPS 2 hr; for LPS-Nig-induced release of LDH / LPS-Nig-induced release of IL-1β: compound 1 hour (fumarate 25 μM), then nigericin; for LPS-Nig-induced release of IL-1β: ELISA; for kinetic cell death / formation of GSDMD-N: LPS-Nig; for kinetic cell death: SYTOX orange, 0-6 hrs; for formation of GSDMD-N: immunoblot; for LPS-Nig induced pyroptosis (inhibitory effect): BMDMs, compound 25 μM 1 hour, nigericin
Procedure: Human kidney cell line HEK293T was cultured in Dulbecco's modified Eagle's medium supplemented with 10% (v/v) fetal bovine serum, 100 U/ml penicillin and 100 µg/ml streptomycin. Human peripheral blood monocyte cell line, THP1 cells were cultured in RPMI-1640 medium supplemented with 10% (v/v) fetal bovine serum, 100 U/ml penicillin and 100 µg/ml streptomycin. For isolation of BMDMs, tibias and femurs were removed from wild type and GsdmD^−/− mice and bone marrow was flushed with complete DMEM-medium. Cells were plated in medium containing 20% (v/v) conditioned medium of L929 mouse fibroblasts cultured for 7 days at 37° C. in a humidified atmosphere of 5% C02. Medium was replaced every 3 days.
Conditioned media or serum was collected as indicated and IL-1β or TNF-α, were quantified by sandwich ELISA (R&D Systems).
Cells were plated, treated and incubated in phenol red free medium. Following treatment medium was collected and assessed for LDH release using the CytoTox96 non-radioactive cytotoxicity assay (Promega) as per manufacturer's instructions. Kinetic cell death assays were performed using SytoxOrange and the Biotek Cytation5.
For noncanonical inflammasome activation, cells were primed with […] Pam3CSK4 (Invivogen) for 2 h, followed by transfection of LPS (2 μg/ml) using Lipofectamine 2000 for 16 hours.
Primary BMDMs from WT or GsdmD^−/− mice were cultured in 12-well plates (1×10^6 cells per ml; 1 ml) or 10 cm dishes (2×10^6 cells per ml; 10 ml). HEK293T cells (2.5×10^5 cells per ml; 3 ml) were cultured in 6-well plates and transfected with FLAG-tagged GSDMD constructs where indicated. For cell lysate analysis cells were lysed directly in 1× Lamelli sample buffer. For native gel analysis cells were lysed in NP-40 lysis buffer (50 mM Tris-HCl, pH 7.4, containing 150 mM NaCl, 0.5% (w/v) IgePal, 50 mM NaF, 1 mM Na3VO4, 1 mM dithiothreitol, 1 mM phenylmethylsulfonyl fluoride and protease inhibitor cocktail. For immunoprecipitation of GSDMD, cells were treated as indicated and then collected in 500 μl RIPA buffer, followed by incubation for 15 min on ice. Lysates were incubated with GSDMD antibody and protein A-protein G-agarose was added to each sample, followed by incubation overnight at 4° C. Immunoprecipitates were collected by centrifugation and washed four times with 1 ml of RIPA buffer. Immunprecipates were eluted from beads using 1× sample buffer. Samples were resolved by SDS-PAGE and stained using simply blue safe stain or transferred to nitrocellulose membranes and analyzed by immunoblot. Immunoreactivity was visualized by the Odyssey Imaging System (LICOR Biosciences). For immunoblotting of IL-1β in cell supernatants, conditioned medium was collected and filtered using filter spin columns to reduce salt and remove abundant serum proteins. Filtrates were added to 4×SDS-PAGE sample buffer and resolved by SDS-PAGE for immunoblot analysis. GSDMD (ab209845) and GSDME antibodies were from abcam (ab215191). Caspase 1 antibody was from adipogen. Fumarase antibody was from cell signalling and anti-β-actin (AC-15; A1978) were from Sigma; anti-mouse IRDye™ 680 (926-68070) and anti-rabbit IRDye™ 800 (926-32211) were from LI-COR Biosciences.
Numerous studies have shown that cell metabolism impacts inflammatory responses. LPS activated macrophages switch from oxidative phosphorylation to aerobic glycolysis. Krebs cycle intermediates such as succinate and itaconate accumulate and moonlight as positive and negative regulators of inflammatory gene expression (3-8). To determine if Krebs cycle intermediates modulate pyroptosis, we tested their effect on inflammasome responses. Bone marrow-derived macrophages (BMDMs) were primed with LPS (2 hr) before being exposed to metabolites and then exposed to nigericin (Nig) and inflammasome activation/pyroptosis measured. The metabolites were added after LPS to avoid any impact on transcription. […] Fumarate impaired kinetic cell death (0-6 hrs) (FIG. 1E, FIG. 5A). […]

[2] = test system: GAPDH target gene iNos; test: QPCR/immunoblot of iNos in BMDMs; conditions: WT BMDMs, HA 1 μM 1 hour, LPS 3 or 6 hours
Procedure: (§1) FIGS. 7A-K. Fumarate regulates pyroptosis independently of NRF2 and GAPDH. (A-B) Kinetic cell death data of WT primary BMDMs treated with LPS for 2 hours, DMSO (vehicle) or fumarate (25 μM) or heptilidic acid (HA) (0.5 μM or 1 μM) (A) or ML385 (1 μM) (B) followed by nigericin (10 μM) for 6 hours. (C-D) LDH (C) and IL-1B (D) release from WT primary BMDMs treated with LPS for 2 hours, DMSO (vehicle) or fumarate (25 μM) for 1 hour, HA or ML385 (1 μM) for 1 hour followed by nigericin (10 μM) or 1 hour. (E-F) Immunoblot analysis of GSDMD in cell lysates from WT BMDMs treated as in (B) with the indicated inhibitors. (G-H) QPCR (G) and immunoblot (H) analysis of iNos in WT BMDMs treated with DMSO (vehicle) or HA (1 μM) for 1 hour and LPS for 3 (G) or 6 (H) hours. (I) QPCR analysis of Hmox1 mRNA in WT BMDMs treated with DMSO (vehicle) or ML385 (1 μM) for 3 hours. (J-K) LDH assay (J) and immunoblot analysis of GSDMD (K) in WT BMDMs transfected with control non-targeting siRNA or NRF2-specific siRNAs (50 nM) for 48 hours followed by treatment with LPS for 2 hours, DMSO (vehicle) or fumarate (25 μM) and nigericin (10 μM) or 1 hour. A, B, E, F, H, K representative images from 3 independent experiments. C, D, G, I, K pooled data from 3 independent experiments. *, P<0.01, ****, P<0.00001 (Two-way ANOVA). Error bars show means±SD (A, B) or SEM (C, D, G, I, J).

[3] = test system: NRF2 target gene Hmox1; test: QPCR of Hmox1 mRNA in BMDMs; conditions: WT BMDMs, ML385 1 μM 3 hours
Procedure: as §1

SMILES | LPS-Nig-induced release of LDH [1] | LPS-Nig-induced release of IL-1β [1] | kinetic cell death [1] | formation of GSDMD-N [1] | expression of GAPDH target gene iNos [2] | expression of NRF2 target gene Hmox1 [3] | LPS-Nig induced pyroptosis (inhibitory effect) [1]
CC(C)[C@H]1CC[C@@]2(CO2)[C@H]2C(=O)OCC(C(=O)O)=C[C@H]12 [Heptilidic acid] | no impact | no impact | no impact | no impact | inhibited | – | –
Cc1ccccc1C(=O)N1CCc2cc(-c3nc(NC(=O)Cc4ccc5c(c4)OCO5)sc3C)ccc21 [ML385] | no impact | no impact | no impact | no impact | – | inhibited | –
COC(=O)/C=C/C(=O)O [MMF, Monomethyl fumarate] | – | – | – | – | – | – | no inhibitory effect
COC(=O)/C=C/C(=O)OCCN1C(=O)CCC1=O [diroximel fumarate] | – | – | – | blocked | – | – | blocked
CCN(CC)C(=O)COC(=O)/C=C/C(=O)OC [tepilamide fumarate] | – | – | – | blocked | – | – | blocked
